According to patent US8548786B2, “Neuronal avalanche assay” (priority 2005, dated 2013):
Counter-ions that a name gives are not always drawn.

Legend:
[1] = system: acute slices of rat medial prefrontal cortex (mPFC); assay: Neuronal avalanche (NAS) assay, microelectrode array LFP recording in acute mPFC slices;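 also: 60-electrode array recordings, low-pass filtered at 200 Hz and sampled at 1 kHz, nLFPs detected below −3 SD of electrode noise, avalanches as runs of active bins between silent bins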
Protocol: Continuous extracellular signals v(t) can be recorded between 0.1 Hz and 3000 Hz, low-pass filtered at 200 Hz (Butterfly-filter, Multichannel Systems), digitised at a rate of 1 kHz (Δt=1 ms) and stored. For each electrode k (k=[1, nelec], nelec=60), the electrode noise of v(t) can be estimated by calculating the mean and standard deviation (SD) of v(t) from the total duration of the recording, Ttot, which can range, for example, between 40-60 min. […] Negative LFP peaks (nLFPs) at electrode k can be detected by negative threshold crossing at −3 SD of electrode noise and can be characterized by the time and absolute amplitude of the negative LFP peak, A^k(ti), before v(t) returned to threshold. More precisely, at a given temporal resolution Δt, nLFPs at electrode k can be represented by a vector of length nmax, where nmax is an integer value for which Ttot=nmax·Δt. This vector can contain zeros, except for positions ti=i·Δt, iε[1, . . . , nmax,] with values A^k(ti) in μV.
A neuronal avalanche is a sequence of consecutive time bins of width Δt with at least one nLFP, which is preceded and terminated by at least one time bin with no activity (FIG. 3A). The absence of activity for a period of Δt thus indicates the end of an avalanche. If the decision of whether an avalanche has ended is made too early (Δt too short), avalanches will be terminated prematurely; if the Δt chosen is too long, avalanches will be falsely concatenated. If avalanches did simply propagate like a wave, an approximation for Δt (Δtavg) could be obtained by averaging the time between one nLFP at one electrode and the next nLFP at neighbouring electrodes only. Because nLFPs in avalanches occur in irregular patterns across electrodes on the array, a pair wise approximation can be used in order to assess the average time that is required for nLFPs to propagate between electrodes.
In order to calculate Δtavg, the distribution of time intervals T for successive nLFPs on the array can be obtained. Starting with the first nLFP, e.g. A^k(ti) on electrode k at time ti, the next occurrence of an nLFP on the array can be searched for, e.g. A^l(tj) on electrode l at time tj, and calculated the time interval Tm-Δt^k,l, where m=(tj−ti)/Δt. This process can be repeated for all occurrences of nLFPs on electrode k and for all electrodes. The resulting values can be combined into one density distribution P(TmΔt), which captures how often successive nLFPs occurred with a particular delay m·Δt on the array irrespective of their spatial location. Consequently, the average value of T provides an approximation for Δtavg, the average time to wait before making a decision whether an nLFP propagated on the array. However, this interval distribution is highly skewed, particularly when one compares the last nLFP with the first nLFP in successive avalanches that are separated by long times. In order to exclude time intervals from successive nLFPs that are barely correlated, a cut-off time τmax can be calculated for which the average crosscorrelation function (ccf) for pair wise electrode comparisons Rccf(τ) had decayed to negligible values. The ccf between electrodes k, l (Rccf^k,l(τ)) can be calculated as
Because the exemplary maximal sampling rate was 1 kHz, the actual Δt^avg to calculate avalanches can be taken as the nearest multiple of Δt=1 ms. In short, after Δtavg was calculated for a particular network and experimental condition, the extracellular signals v(t) can be re-sampled at the new temporal resolution of Δtavg. Time and amplitude of nLFP peaks can be extracted as A^k(ti), where ti=i·Δtavg, iε[1, n′max] and Ttot=n′max·Δtavg. Avalanches can be determined on the downsampled data set at bin width Δtavg.
Avalanche sizes can be calculated in two different ways (see also FIG. 3A).

[2] = system: organotypic cortex cultures; assay: Neuronal avalanche assay in organotypic cortex slice cultures on microelectrode arrays; assay type: cell-based, rat
Protocol: Organotypic cultures from slices of rat cortex were prepared in accordance with NIH guidelines. Coronal sections from rat brains (Sprague Dawley, Taconic Farms, Md., USA) at postnatal day 0-2 were cut at 350 μm thickness. A coronal slice section containing dorsal or dorsolateral cortex (˜1.5 mm deep and ˜2-3 mm wide) was positioned on a multi-electrode array (Multichannelsystems, Reutlingen, Germany). The array covered ˜50-70% of the cortical tissue with the bottom row aligned to infragranular layers and the upper rows extending beyond layer I. This arrangement allowed for the dorsal expansion of the cortical slice on the multielectrode array, which results from the development of superficial layers during the first weeks postnatal in rat cortex. The slices were attached to the pre-cleaned, poly-D-lysine coated multielectrode array-surface by coagulation with 15 μl chicken plasma and 15 μl of bovine thrombin (Sigma St. Louis, Mo., USA), after which cultures were grown at 35.5° C. in normal atmosphere in a culture medium consisting of 50% Basal Medium Eagle, 25% Hanks Balanced Salt Solution and 25% horse serum, 0.5% glucose, and 0.5 mM L-glutamine (all Gibco, Grand Island, N.Y., USA). Photographs taken at 1-3 DIV and after recording sessions confirmed the position of recording electrodes in the cortical tissue and organotypic cortex slice culture.
A custom-built incubator was used in order to allow for long-term pharmacological experiments and repetitive, sterile recording sessions at different developmental stages under identical recording and culturing conditions. The chamber design and preparation of the multielectrode array for recordings has been described in more detail previously. In short, each multielectrode array consisted of a square glass plate (5×5 cm, 1 mm thickness) with a square array of 60 microelectrodes made of titanium nitride (8×8 grid with the corners missing) at its center (Egert et al., 1998). Titanium nitride electrodes were flat and disk-shaped with a diameter of 30 μm, an inter electrode spacing of 200 μm, and were attached to gold leads that ended at the edge of the glass square and served as contacts for the amplifier head stage. A circular glass well (˜10 mm diameter) with a Teflon cap was centered and cured to the glass plate by Sylgard® functioned as a tight-sealed, sterile culture chamber.
Multielectrode arrays were placed onto storage trays inside the incubator and gently rocked. The temperature inside incubator was maintained at 35±0.5° C. For optimal culture survival and culture growth a rocking trajectory was used that approximated a sinusoidal function (˜400 s cycle time) with brief halts of ˜10 s at the steepest angle before reversing directions. At the points of direction reversal, cultures were exposed to the inner chamber atmosphere. […] After 3 and 27 days in vitro (DIV), […] of mitosis inhibitor was added for 24 hr ([…]; calculated to final concentration; all Sigma). Medium was changed every 3-5 days. No antibiotics were used throughout cultivation and recording periods.
For recordings, individual multielectrode arrays were placed into the recording head stage (MultiChannelSystems, Inc.), which was affixed to a second tray within the incubator and had the exact same motion as the primary storage tray. This allowed recording in culture medium under conditions identical to growth conditions. The exchange between recording and storage location for each multielectrode array took few seconds and was done without interruption of the rocking cycle. Activity occurred spontaneously in organotypic cortex cultures and was recorded up to 5 hrs giving rise to >10,000 avalanches per network.
Overall, negative local field potentials (nLFPs) occurred at 82±5% of the electrodes in the acute slices and 88±5% of the electrodes in cultures. Data was sampled at 1 kHz and low pass filtered at 50 Hz. […]

[3] = system: organotypic cortex-VTA cultures; assay: γ-oscillations and neuronal avalanches in organotypic cortex-VTA co-cultures; assay type: cell-based, rat
Protocol: Cortical extracellular neuronal activity was recorded in organotypic cortex-VTA cultures using 8×8 multielectrode arrays (FIG. 17A). The activity in the cortical tissue started as isolated single unit activity, which later formed bursts of multi-unit activity in the form of oscillations (FIG. 17B). […] The appearance of oscillatory activity ranged from closely placed isolated LFPs to frank sinusoidal waves lasting from 50 ms to 500 ms. […] LFP amplitudes varied from −10 μV to −1200 μV (mean=−38.2±3.4 μV) and varied between cultures −10.68±0.53 μV to −223.6±19.25 μV (mean high value).
Organotypic co-cultures were prepared from the frontal cortex (EC) and ventral-tegmental area (VTA) isolated from postnatal day 1-2 (PND) old rats. The VTA slices were cut at a thickness of 500 μm and cortex at 350 μm. The culture was done with cortex placed on multielectrode arrays (Multichannel Systems, Reutlingen, Germany) with electrode diameter of 30 μm and interelectrode distance of 200 μm. Cultivation and recording was done in a sterile chamber on the microelectrode array as described above. The culture was kept within the incubator with the rocking movement (˜0.005 Hz) throughout the recording. Spontaneous extracellular signals were recorded at a sampling frequency of 4 kHz with 1 kHz low pass filtering continuously for an average of 4±1 hrs. The temperature inside incubator was maintained at 35±0.5° C.
Neuronal oscillatory activity was analyzed by calculating the power spectrum from periods of prominent LFP activity, i.e. LFP bursts using a discrete Fast Fourier Transform in Matlab (Mathworks). Periods of prominent LFP activity were identified by negative threshold crossing at −3 SD from electrode noise. When calculating the average power spectrum for an activity period on the array, the duration for selecting activity periods was taken as the average duration of individual oscillatory activity in each recording session. While taking activity regions care was taken to avoid recalculation of spectra from the same time period in same electrode. The power spectrum of noise for each electrode was separately calculated from 20 separate recording regions where no activity was present and the power in the noise was subtracted from that in the signal. The selected signal region was filtered with a Hanning window (a cosine window defined by: w(k+1)=0.5*(1−cos(2*pi*(k/(n−1)))), k=0, 1, 2 . . . n−1) before calculating the power spectrum. The power spectrum of each activity period was calculated and averaged from all the active electrodes in each activity period. Then the power spectrum was averaged over the entire 4 hr recording.
To test the hypothesis, that neuronal avalanches might persist in the presence of oscillatory activity, the signals from all channels were analyzed for LFPs occurring with a peak 3×SD above noise (FIG. 19). This yielded a raster with time of occurrence and peak amplitude of LFPs (FIGS. 19B,C). The data was binned at Δtavg obtained from cross correlation analysis. […] Plotting the probability of occurrence of avalanches of different sizes against avalanches in log-log coordinates of different sizes yielded a curve with slope α=−1.5 (FIGS. 19D,E; mean=−1.53±0.02, n=9).
About 3 μl of the stock solution was added to the ˜600 μl of culture media in the multielectrode array chamber to reach a final concentration of 10 μM. […] The concentration of DMSO in the working solution was limited to 0.01%. Each addition of the drug was followed by 4 hours of continuous recording, after which the culture was washed by replacing the culture medium with 50% of conditioned media (collected from the same culture the day before drug application) and 50% of fresh, unconditioned medium, followed by 4-8 hrs of recording.

[4] = system: organotypic cortex-VTA cultures; assay: as above; assay type: cell-based, rat; remark: listed apart in the source
[5] = similar for each dopamine concentration, + 3 μM NMDA, n=26 slices

With `CN[C@H](CC(=O)O)C(=O)O` [NMDA, N-Methyl-D-Aspartate] the “nLFP and avalanche activity induced by NMDA alone” value ([1]; 3 μM NMDA alone in the presence of 10 μM SCH23390, n=7) was “negligible nLFP and avalanche activity”.
In the case of `O=[N+]([O-])c1cc2nc(O)c(O)nc2cc1[N+](=O)[O-]` [DNQX], the “slope α of avalanche size distribution” value ([2]; DNQX 3 μM bath-applied, 6 cortical cultures, control −1.5) is reported as ~−2.
In the case of picrotoxin, the “nLFP and avalanche activity after adding GABAA antagonist” value ([1]; 10 μM picrotoxin added to activity sustained by 30 μM dopamine + 3 μM NMDA) is reported as “ceased”, the “maximal time difference between correlated electrodes τmax” value ([1]; picrotoxin alone 10 μM) is reported as 30.5±7.2 and the Δtavg ([1]; picrotoxin alone 10 μM) is reported as 2.3±0.2. For the same compound, the avalanche rate ([1]; picrotoxin alone 10 μM, n=6) was 0.18±0.02 Hz, the “duration of spontaneous activity” value ([1]; picrotoxin alone 10 μM, n=6) was 28 ± 2 min and the nLFP rate ([1]; picrotoxin alone 10 μM, n=6) was 0.01±0.001 Hz. For the same compound, the “total activity Atot” value ([1]; picrotoxin alone 10 μM, n=6) was 5033±719 μV, the “initial slope αLFP of disinhibited activity” value ([1]; picrotoxin alone 10 μM, sLFP=15-85) was −1.9±0.08 and the “initial slope αele of disinhibited activity” value ([1]; picrotoxin alone 10 μM, sele=1-5) was −1.97±0.02. The “spontaneous avalanche induction with co-applied GABAA antagonist” value ([1]; picrotoxin co-applied with 3 μM NMDA and 3 μM SKF38393, n=6) was “prevented spontaneous avalanches induction altogether”, the “average burst duration in the network” value ([3]; picrotoxin, n=3 cultures) was “increases the average burst duration” and the “power in the δ/θ-frequency range” value ([3]; picrotoxin, single culture) was “increases the power in the δ/θ-frequency range”. For the same compound, the “shape of avalanche size distribution” value ([4]; picrotoxin 5 μM) was “almost bimodal”, the “reduction of γ-oscillations” value ([4]; picrotoxin 5 μM bath-applied) was “more than 50%” and the “initial slope α of avalanche size distribution” value ([2]; picrotoxin 3 μM (FIG. 24C legend)) was ~−2. The “over-representation of large avalanches, epileptic vs sub-critical state” value ([2]; picrotoxin 3 μM vs DNQX 3 μM) was ~10 times, the “decrease in average rate of spontaneous nLFPs” value ([2]; picrotoxin 5 μM, N=4 cultures) was 80±23% and the “increase of deviations in nLFP waveforms relative to initial nLFP” value ([2]; picrotoxin 5 μM, first time step) was ~3.5 fold. For the same compound, the “probability of nLFP being larger than nLFP in the preceding time step” value ([2]; picrotoxin 5 μM, normal conditions 0.5) was ~0.58, the “increase of deviations in nLFP waveforms relative to initial nLFP” value ([2]; picrotoxin 5 μM, within 8 time steps) was ~6 fold and the “initial slope α of avalanche size distribution” value ([2]; picrotoxin 2-3 μM) was −1.8. The “shape of avalanche size distribution” value ([2]; picrotoxin 2-3 μM) was “bimodal distribution”.
In the case of `CN1CCc2cc(Cl)c(O)cc2[C@@H](c2ccccc2)C1` (racemic) [SCH23390, R(±)-7-chloro-8-hydroxy-3-methyl-1-phenyl-2,3,4,5-tetrahydro-1H-3-benzazepine hydrochloride], the “slope αLFP for washout of antagonist” value ([1]; after washout of 10 μM SCH23390, 30 μM dopamine + 3 μM NMDA) is reported as −1.55±0.06, the “shift of peak frequency in the high frequency band from its original value” ([3]; SCH23390 10 μM) is reported as 59±1% and the “reduction of power of dominant frequencies between 40-120 Hz” value ([3]; SCH23390 10 μM, n=5) is reported as “more than 50%”. For the same compound, the “slope α of avalanche size distribution” value ([3]; SCH23390 10 μM, n=5) was −1.60±0.04.
In the case of `CN1[C@@H]2CC[C@H]1C[C@@H](OC(=O)C(CO)c1ccccc1)C2` (stereo partly drawn) [atropine], the “neuronal avalanche induction with muscarinergic receptors blocked” value ([1]; atropine 10 μM + 3 μM NMDA + 3 μM SKF38393) is reported as “did not block neuronal avalanche induction” and the “power law slope αLFP with muscarinergic receptors blocked” value ([1]; atropine 10 μM + 3 μM NMDA + 3 μM SKF38393, n=6) is reported as −1.696±0.045.
In the case of `CCN1CCCC1CNC(=O)c1cc(S(N)(=O)=O)ccc1OC` (stereo not drawn) [sulpiride], the “change in γ frequency” value ([3]; sulpiride 10 μM) is reported as “without a change in frequency”, the “change of power of γ-activity” value ([3]; sulpiride 10 μM, n=5) is reported as “doubled” and the “slope α of avalanche size distribution” value ([3]; sulpiride 10 μM, n=5) is reported as −1.37±0.02.
With `NCCc1ccc(O)c(O)c1` [dopamine] the “maximal area sele within the power law regime” value ([1]; 30 μM dopamine + 3 μM NMDA) was ~18 electrodes, the “optimal bin width Δtavg” value ([1]; 30 μM dopamine + 3 μM NMDA) was 2.7 ± 0.2 ms and the “slope αLFP of avalanche size distribution (summed nLFP amplitudes)” value ([1]; 30 μM dopamine + 3 μM NMDA bath-applied, sLFP=6-300 μV) was −1.50±0.03. For the same compound, the “τmax for which Rccf dropped below 10^−4” value ([1]; 30 μM dopamine + 3 μM NMDA, all n=6 slices) was 60 ms, the “cortical layer localisation of induced avalanche activity” value ([1]; 30 μM dopamine + 3 μM NMDA, cortical depth 200-900 μm) was “strongest in superficial layers II/III” and the “propagation velocity for nLFPs on the array” value ([1]; 30 μM dopamine + 3 μM NMDA, inter-electrode distance 200 μm) was ~74 mm/s. For the same compound, the “slope αele of avalanche size distribution (number of active electrodes)” value ([1]; 30 μM dopamine + 3 μM NMDA, sele=1-18 electrodes) was −1.47±0.03, the “increase in likelihood of family recurrence beyond chance level” value ([1]; 30 μM dopamine in the presence of 3 μM NMDA) was ~500% and the “Δtavg, average for all dopamine concentrations” value ([1]; all dopamine concentrations tested + 3 μM NMDA, n=26 experiments) was 2.7 ± 0.1 ms. The “mean nLFP peak, rate of nLFPs per electrode and total activity Atot, dependence on dopamine concentration” value ([1]; dopamine + 3 μM NMDA, inverted-U profile) was “maximal at moderate concentration of dopamine (30 μM)”, the “slope α of cluster size distribution” value ([1]; dopamine concentrations lower or higher than 30 μM, + 3 μM NMDA) was ~−2 and the “duration of spontaneous activity” value [1, 5] was 43 ± 3 min. For the same compound, the “number of active electrodes” value [1, 5] was 33±4 electrodes.
For `CN1CCN(C2=Nc3cc(Cl)ccc3Nc3ccccc32)CC1` [Clozapine, clozapine], the “network state of induced avalanche dynamics” value ([1]; clozapine 100 nM) was “epileptic”, the “slope αele of avalanche size distribution” value ([1]; clozapine 100 nM) was −2.07±0.08 and the “ΔPmax (likelihood of large avalanches beyond linear regression)” value ([1]; clozapine 100 nM) was 0.006. For the same compound, the “total duration of induced LFP activity” value ([1]; clozapine 100 nM bath-applied) was ~40 min and the “initial slope αLFP of avalanche size distribution” value ([1]; clozapine 100 nM, Δtavg=1 ms, range 5-60 μV) was −2.00±0.13.
